Assays:
Test in all cases: combination Emax (second highest fraction inhibited in the dose matrix, 72 h); higher = more inhibition; extreme values may be limits of the assay
[1] = system: BT-20 (Breast Carcinoma)
How it was run: (§1)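 Bliss excess equals the observed combination effect minus the expected value EA + EB − EA·EB, where EA and EB are the effects of each agent alone. Combination Emax is the second-highest inhibition within the matrix. Inhibition was scaled from CellTiter-Glo 2.0 luminescence, with 0 set by vehicle wells and 1 by blank wells, after 72 hours of two-drug dosing of cells plated in 1536-well plates.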

[2] = system: EW-18 (Ewing's Sarcoma)
How it was run: as §1

[3] = system: VMRC-LCD (Lung Adenocarcinoma)
How it was run: as §1

[4] = system: PF-382 (T-Lymphoblastic Leukemia)
How it was run: as §1

[5] = system: ASH-3 (Thyroid Gland Carcinoma)
How it was run: as §1

[6] = system: HC-1 (Other Blood Carcinomas)
How it was run: as §1

[7] = system: NCI-H2405 (Lung Adenocarcinoma)
How it was run: as §1

[8] = system: HSC-2 (Oral Cavity Carcinoma)
How it was run: as §1

[9] = system: DG-75 (Burkitt's Lymphoma)
How it was run: as §1

[10] = system: JHH-7 (Hepatocellular Carcinoma)
How it was run: as §1

[11] = system: NCI-H322M (Lung Adenocarcinoma)
How it was run: as §1

[12] = system: SNU-C1 (Colorectal Carcinoma)
How it was run: as §1

[13] = system: NB7 (Neuroblastoma)
How it was run: as §1

[14] = system: A704 (Kidney Carcinoma)
How it was run: as §1

[15] = system: KYSE-150 (Esophageal Squamous Cell Carcinoma)
How it was run: as §1

[16] = system: EW-3 (Ewing's Sarcoma)
How it was run: as §1

[17] = system: EMC-BAC-2 (Non-Small Cell Lung Carcinoma)
How it was run: as §1

[18] = system: NCI-H1573 (Lung Adenocarcinoma)
How it was run: as §1

[19] = system: BV-173 (Chronic Myelogenous Leukemia)
How it was run: as §1

[20] = system: PFSK-1 (Other Solid Carcinomas)
How it was run: as §1

Row | SMILES | combination Emax [1] | combination Emax [2] | combination Emax [3] | combination Emax [4] | combination Emax [5] | combination Emax [6] | combination Emax [7] | combination Emax [8] | combination Emax [9] | combination Emax [10] | combination Emax [11] | combination Emax [12] | combination Emax [13] | combination Emax [14] | combination Emax [15] | combination Emax [16] | combination Emax [17] | combination Emax [18] | combination Emax [19] | combination Emax [20]
1 | Cn1cnc2c(F)c(Nc3ccc(Br)cc3Cl)c(C(=O)NOCCO)cc21 [Selumetinib] + C=CCn1c(=O)c2cnc(Nc3ccc(N4CCN(C)CC4)cc3)nc2n1-c1cccc(C(C)(C)O)n1 [AZD1775] (first compound max 10 µM, partner max 1 µM) | 0.695 | 0.526 | 0.702 | 0.974 | 0.367 | 0.941 | 0.395 | 0.372 | 0.634 | 0.229 | 0.861 | 0.627 | 0.619 | 0.488 | 0.453 | 0.269 | 0.412 | 0.417 | 0.925 | 0.659
2 | CN(CCO)CC[C@H](CSc1ccccc1)Nc1ccc(S(=O)(=O)NC(=O)c2ccc(N3CCC([C@@H](O)c4ccccc4-c4ccc(Cl)cc4)CC3)cc2)cc1S(=O)(=O)C(F)(F)F [AZD4320] + C[C@@H](Nc1cc(F)cc(F)c1)c1cc(C(=O)N(C)C)cc2c(=O)cc(N3CCOCC3)oc12 [AZD8186] (first compound max 1 µM, 7x7, partner max 3 µM) | 0.614 | 0.914 | 0.249 | 1 | 0.682 | 0.965 | 0.417 | 0.897 | 0.286 | 0.368 | 0.506 | 0.484 | 0.49 | 0.57 | 0.298 | 0.898 | 0.383 | 0.289 | 0.971 | 0.471
3 | COc1nnc2ccc(N3CCC(c4ccc(OCCN5CCN(C)C(=O)[C@H]5C)cc4)CC3)nn12 [AZD5153] + CC1(C)CCC(CN2CCN(c3ccc(C(=O)NS(=O)(=O)c4ccc(NCC5CCOCC5)c([N+](=O)[O-])c4)c(Oc4cnc5[nH]ccc5c4)c3)CC2)=C(c2ccc(Cl)cc2)C1 [Venetoclax] (first compound max 1 µM, 7x7, partner max 1 µM) | 0.138 | 0.615 | 0.489 | 0.871 | 0.718 | 0.557 | 0.319 | 0.662 | 0.887 | 0.348 | 0.515 | 0.46 | 0.37 | 0.585 | 0.627 | 0.751 | 0.661 | 0.356 | 0.921 | 0.595
4 | COc1nnc2ccc(N3CCC(c4ccc(OCCN5CCN(C)C(=O)[C@H]5C)cc4)CC3)nn12 [AZD5153] + Cc1c2c(nn1C)CSCc1cc(n(C)n1)CSc1cc(c3ccccc3c1)OCCCc1c(C(=O)O)n(C)c3c-2c(Cl)ccc13 [AZD5991] (first compound max 1 µM, 7x7, partner max 1 µM) | 0.787 | 0.938 | 0.925 | 0.986 | 0.88 | 0.753 | 0.36 | 0.963 | 0.876 | 0.291 | 0.539 | 0.637 | 0.875 | 0.545 | 0.582 | 0.908 | 0.886 | 0.673 | 0.936 | 0.982
5 | CN(CCO)CC[C@H](CSc1ccccc1)Nc1ccc(S(=O)(=O)NC(=O)c2ccc(N3CCC([C@@H](O)c4ccccc4-c4ccc(Cl)cc4)CC3)cc2)cc1S(=O)(=O)C(F)(F)F [AZD4320] + Cc1cc2ncnn2cc1Nc1ncc2c(n1)n(C1CCOCC1)c(=O)n2C [AZD7648] (first compound max 1 µM, 7x7, partner max 10 µM) | 0.606 | 0.883 | 0.0704 | 0.983 | 0.542 | 0.58 | 0.186 | 0.461 | 0.472 | 0.344 | 0.254 | 0.633 | 0.0542 | 0.563 | 0.478 | 0.958 | 0.258 | 0.135 | 0.961 | 0.397
6 | CN(CCO)CC[C@H](CSc1ccccc1)Nc1ccc(S(=O)(=O)NC(=O)c2ccc(N3CCC([C@@H](O)c4ccccc4-c4ccc(Cl)cc4)CC3)cc2)cc1S(=O)(=O)C(F)(F)F [AZD4320] + C=CCn1c(=O)c2cnc(Nc3ccc(N4CCN(C)CC4)cc3)nc2n1-c1cccc(C(C)(C)O)n1 [AZD1775] (first compound max 1 µM, partner max 1 µM) | 0.787 | 0.888 | 0.562 | 1 | 0.531 | 1 | 0.193 | 0.639 | 0.82 | 0.524 | 0.851 | 0.613 | 0.689 | 0.781 | 0.432 | 0.962 | 0.425 | 0.291 | 0.958 | 0.742
7 | COc1nnc2ccc(N3CCC(c4ccc(OCCN5CCN(C)C(=O)[C@H]5C)cc4)CC3)nn12 [AZD5153] + C=CCn1c(=O)c2cnc(Nc3ccc(N4CCN(C)CC4)cc3)nc2n1-c1cccc(C(C)(C)O)n1 [AZD1775] (first compound max 1 µM, partner max 1 µM) | 0.471 | 0.687 | 0.943 | 0.999 | 0.742 | 0.948 | 0.429 | 0.679 | 0.905 | 0.316 | 0.841 | 0.546 | 0.587 | 0.652 | 0.666 | 0.622 | 0.735 | 0.637 | 0.931 | 0.744
8 | CC1(C)CCC(CN2CCN(c3ccc(C(=O)NS(=O)(=O)c4ccc(NCC5CCOCC5)c([N+](=O)[O-])c4)c(Oc4cnc5[nH]ccc5c4)c3)CC2)=C(c2ccc(Cl)cc2)C1 [Venetoclax] + COc1cc(Nc2ncc3c(n2)-c2ccc(Cl)cc2C(c2c(F)cccc2OC)=NC3)ccc1C(=O)O [Alisertib] (first compound max 1 µM, 7x7, partner max 10 µM) | 0.499 | 0.736 | 0.619 | 0.905 | 0.476 | 0.861 | 0.228 | 0.732 | 0.518 | 0.287 | 0.352 | 0.251 | 0.556 | 0.758 | 0.516 | 0.847 | 0.507 | 0.378 | 0.971 | 0.477
9 | CC1(C)CCC(CN2CCN(c3ccc(C(=O)NS(=O)(=O)c4ccc(NCC5CCOCC5)c([N+](=O)[O-])c4)c(Oc4cnc5[nH]ccc5c4)c3)CC2)=C(c2ccc(Cl)cc2)C1 [Venetoclax] + C[C@@H](Nc1cc(F)cc(F)c1)c1cc(C(=O)N(C)C)cc2c(=O)cc(N3CCOCC3)oc12 [AZD8186] (first compound max 1 µM, 7x7, partner max 3 µM) | 0.0992 | 0.599 | 0.093 | 0.202 | 0.332 | 0.616 | 0.0892 | 0.92 | 0.386 | 0.0915 | 0.237 | 0.063 | 0.295 | 0.429 | 0.161 | 0.736 | 0.2 | 0.162 | 0.82 | 0.194
10 | CS(=O)(=O)CCNCc1ccc(-c2ccc3ncnc(Nc4ccc(OCc5cccc(F)c5)c(Cl)c4)c3c2)o1 [Lapatinib] + C[C@@H](Oc1cc(-c2cnn(C3CCNCC3)c2)cnc1N)c1c(Cl)ccc(F)c1Cl [Crizotinib] (first compound max 10 µM, 7x7, partner max 10 µM) | 0.652 | 0.951 | 0.711 | 0.978 | 0.908 | 0.898 | 0.193 | 0.998 | 0.92 | 0.614 | 0.876 | 0.675 | 0.565 | 0.905 | 0.984 | 0.91 | 0.909 | 0.786 | 0.94 | 0.956
11 | COc1cccc(OCCCN)c1-c1cc(Nc2cnc(C#N)cn2)n[nH]1 [Prexasertib] + CCc1c2c(nc3ccc(O)cc13)-c1cc3c(c(=O)n1C2)COC(=O)[C@]3(O)CC [SN-38] (first compound max 1 µM, 7x7, partner max 0.3 µM) | 0.965 | 0.77 | 0.769 | 0.994 | 0.989 | 1 | 0.626 | 0.95 | 0.957 | 0.736 | 0.982 | 0.745 | 0.985 | 0.749 | 0.966 | 0.838 | 0.657 | 0.777 | 0.967 | 0.815
12 | Cc1c2c(nn1C)CSCc1cc(n(C)n1)CSc1cc(c3ccccc3c1)OCCCc1c(C(=O)O)n(C)c3c-2c(Cl)ccc13 [AZD5991] + Cn1cnc2c(F)c(Nc3ccc(Br)cc3Cl)c(C(=O)NOCCO)cc21 [Selumetinib] (first compound max 1 µM, 7x7, partner max 3 µM) | 0.763 | 0.927 | 0.174 | 0.207 | 0.368 | 0.402 | 0.483 | 0.907 | 0.112 | 0.278 | 0.566 | 0.695 | 0.536 | 0.306 | 0.488 | 0.549 | 0.834 | 0.586 | 0.938 | 1

Source: the supplement of paper PMC11061612
